Laboratory results from patent US20260022143A1, “Cyclic Peptide Inhibitors of IL-23” (JANSSEN PHARMACEUTICA NV, priority 2022, published 2026).
Structures can show the parent of a compound that is named as a salt. Positions of bridges follow the written chain, without caps; N, C: chain ends. Non-standard residues stand in square brackets, D forms with d. Residues, ends and D or L forms follow the SMILES beside them. Groups on a side chain read outwards from the residue. *: point of attachment. X46 = CCCCCCCCCCCC(=O)N[C@@H](CCC(=O)NCCOCCOCC(=O)NCCOCCOCC(=O)NCCCC[C@H](NC(=O)COCCOCCNC(=O)COCCOCCNC(=O)CC[C@H](NC(=O)CCCCCCCCCCC)C(=O)O)C(=O)*)C(=O)O; Trp(7-(3-AcNH-Ph)) = CC(=O)Nc1cccc(-c2cccc3c(C[C@H](N)C(=O)O)c[nH]c23)c1; Me3N+(CH2)2O(CH2)2O(CH2)2CO = C[N+](C)(C)CCOCCOCCC(=O)*; Trp(7-Me) = Cc1cccc2c(C[C@H](N)C(=O)O)c[nH]c12; Dab(NMeAc) = CC(=O)N(C)CC[C@H](N)C(=O)O; X47 = C[N+]1(C)CC[N+]2(CCN(CC*)CC2)CC1; X60 = CCCCCCCC[N+](C)(C)CCc1cn(CC*)nn1; 2Nal = N[C@@H](Cc1ccc2ccccc2c1)C(=O)O; 3Pal = N[C@@H](Cc1cccnc1)C(=O)O; Lys(Me) = CNCCCC[C@H](N)C(=O)O; NMeK = CN[C@@H](CCCCN)C(=O)O; Pen = CC(C)(S)[C@H](N)C(=O)O; Thp = NC1(C(=O)O)CCOCC1; X3 = C[N+](C)(C)CCCCC*; AEEA = NCCOCCOCC(=O)O; Me2NCH2CH2 = CN(C)CC*; Tfa = O=C(C(F)(F)F)*; Sar = CNCC(=O)O

Tests used:
[1] = molecular target: T1, IL-23R (Homo sapiens, UniProt Q5VWK5); assay: IL23R Reporter Assay; format: cell-based; details: HEK293 cells containing IL-23R, IL-12RP1 and STAT-inducible firefly luciferase reporter; 10 ng/mL IL-23 (EC90); 5 h at 37° C.; read-out: IL23R Reporter Assay
T1 construct: host or cells: HEK293
T1 sequence (Q5VWK5 24-629): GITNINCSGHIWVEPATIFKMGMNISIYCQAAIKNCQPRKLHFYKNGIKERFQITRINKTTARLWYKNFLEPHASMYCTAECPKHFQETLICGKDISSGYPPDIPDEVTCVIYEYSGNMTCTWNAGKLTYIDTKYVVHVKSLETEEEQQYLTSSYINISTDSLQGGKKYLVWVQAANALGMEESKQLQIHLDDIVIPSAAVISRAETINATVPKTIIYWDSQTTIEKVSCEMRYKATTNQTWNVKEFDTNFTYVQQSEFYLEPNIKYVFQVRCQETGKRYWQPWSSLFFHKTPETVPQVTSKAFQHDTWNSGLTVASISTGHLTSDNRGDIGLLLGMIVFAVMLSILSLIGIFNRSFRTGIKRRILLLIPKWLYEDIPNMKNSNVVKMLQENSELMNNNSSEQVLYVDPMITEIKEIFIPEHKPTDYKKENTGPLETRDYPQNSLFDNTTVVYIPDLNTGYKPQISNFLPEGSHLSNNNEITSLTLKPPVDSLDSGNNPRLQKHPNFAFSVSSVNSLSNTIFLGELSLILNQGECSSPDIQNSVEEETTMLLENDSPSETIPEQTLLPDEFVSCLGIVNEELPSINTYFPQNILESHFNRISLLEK

[2] = Exposed Polar Surface Area (EPSA); format: physicochemical; details: SFC on Chirex 3014 column; sample 1 mM DMSO stock; read-out: EPSA
Summary of the method: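 Chirex 3014 column, 35 °C, 4 mL/min; CO2/MeOH + 20 mM NH4 formate, 5→60% modifier at 20%/min. UV/MS detection. EPSA (Å^2) from retention time vs 8-standard calibration line; duplicates; 1 mM DMSO stock injected undiluted.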

| Structure (SMILES) | IC50 [1] [nM] | EPSA [2] [A^2] |
| --- | --- | --- |
| CCCCCCCC[N+](C)(C)CCc1cn(CCOc2ccc(C[C@H](NC(=O)[C@H]3NC(=O)[C@H](CCCCNC(C)=O)NC(=O)[C@H](Cc4c[nH]c5c(C)cccc45)NC(=O)[C@H]([C@@H](C)O)NC(=O)[C@H](CC(N)=O)NC(=O)[C@@H](NC(C)=O)C(C)(C)SSC3(C)C)C(=O)N[C@@H](Cc3ccc4ccccc4c3)C(=O)NC3(C(=O)N[C@@H](CCCCNC(C)=O)C(=O)N[C@@H](CC(N)=O)C(=O)N[C@@H](Cc4cccnc4)C(=O)N(C)CC(N)=O)CCOCC3)cc2)nn1 [compound 250] (Ac-[Pen]NT[Trp(7-Me)]K(Ac)[Pen]Y(X60)[2Nal][Thp]K(Ac)N[3Pal][Sar]-NH2; disulfide 1-6 (inferred)) | 6.9 | 146 |
| CC(=O)N(C)CCCC[C@@H]1NC(=O)[C@H](Cc2c[nH]c3c(C)cccc23)NC(=O)[C@H]([C@@H](C)O)NC(=O)[C@H](CC(=O)N(C)C)NC(=O)[C@@H](NC(=O)CCOCCOCC[N+](C)(C)C)C(C)(C)SSC(C)(C)[C@@H](C(=O)N[C@@H](Cc2ccc(OCCN3CC[N+]4(CC3)CC[N+](C)(C)CC4)cc2)C(=O)N[C@@H](Cc2ccc3ccccc3c2)C(=O)NC2(C(=O)N[C@@H](CCCCN(C)C(C)=O)C(=O)N[C@@H](CC(N)=O)C(=O)N[C@@H](Cc3cccnc3)C(=O)N(C)CC(=O)N(C)C)CCOCC2)NC1=O [compound 269, cPEG3aCO-Pen(3)-N(N(Me)2)-T-7MeW-K(NMeAc)-Pen(3)-DMTASF-2Nal-THP-K(NMeAc)-N-3Pya-Sar-CON(Me)2] ({Me3N+(CH2)2O(CH2)2O(CH2)2CO}-[Pen]D(NMe2)T[Trp(7-Me)][Lys(Me)](Ac)[Pen]Y(X47)[2Nal][Thp][Lys(Me)](Ac)N[3Pal][Sar]-NMe2; disulfide 1-6) | 1.4 | 167 |
| CC(=O)N(C)CC[C@@H]1NC(=O)[C@H](Cc2c[nH]c3c(C)cccc23)NC(=O)[C@H]([C@@H](C)O)NC(=O)[C@H](CC(N)=O)NC(=O)[C@@H](NC(=O)C(F)(F)F)C(C)(C)SSC(C)(C)[C@@H](C(=O)N[C@@H](Cc2ccc(OCCN(C)C)cc2)C(=O)N[C@@H](Cc2ccc3ccccc3c2)C(=O)NC2(C(=O)N[C@@H](CCC(=O)N(C)C)C(=O)N[C@@H](CC(N)=O)C(=O)N[C@@H](Cc3cccnc3)C(=O)N(C)CC(N)=O)CCOCC2)NC1=O [compound 71] (Tfa-[Pen]NT[Trp(7-Me)][Dab(NMeAc)][Pen]Y(Me2NCH2CH2)[2Nal][Thp]E(NMe2)N[3Pal][Sar]-NH2; disulfide 1-6 (inferred)) | 2.1 | 146 |

Results, then the compound that gave them:

| IC50 [1] [nM] | EPSA [2] [A^2] | Structure (SMILES) |
| --- | --- | --- |
| 1.2 | 157 | CC(=O)Nc1cccc(-c2cccc3c(C[C@@H]4NC(=O)[C@H]([C@@H](C)O)NC(=O)[C@H](CC(=O)N(C)C)NC(=O)[C@@H](NC(=O)CCOCCOCC[N+](C)(C)C)C(C)(C)SSC(C)(C)[C@@H](C(=O)N[C@@H](Cc5ccc(OCCCCC[N+](C)(C)C)cc5)C(=O)N[C@@H](Cc5ccc6ccccc6c5)C(=O)NC5(C(=O)N[C@@H](CCCCN(C)C(C)=O)C(=O)N[C@@H](CC(N)=O)C(=O)N[C@@H](Cc6cccnc6)C(=O)N(C)CC(=O)N(C)C)CCOCC5)NC(=O)[C@H](CCCCN(C)C(C)=O)NC4=O)c[nH]c23)c1 [compound 294, cPEG3aCO-Pen(3)-N(N(me)2)-T-7(3NAcPh)W-K(NMeAc)-Pen(3)-TMAPF-2Nal-THP-K(NMeAc)-N-3Pya-Sar-CON(Me)2] ({Me3N+(CH2)2O(CH2)2O(CH2)2CO}-[Pen]D(NMe2)T[Trp(7-(3-AcNH-Ph))][Lys(Me)](Ac)[Pen]Y(X3)[2Nal][Thp][Lys(Me)](Ac)N[3Pal][Sar]-NMe2; disulfide 1-6 (inferred)) |
| 20 | 203 | CCCCCCCCCCCC(=O)N[C@@H](CCC(=O)NCCOCCOCC(=O)NCCOCCOCC(=O)NCCCC[C@H](NC(=O)COCCOCCNC(=O)COCCOCCNC(=O)CC[C@H](NC(=O)CCCCCCCCCCC)C(=O)O)C(=O)NCCOCCOCC(=O)NCCOCCOCC(=O)NCCCC[C@@H](C(N)=O)N(C)C(=O)[C@H](Cc1cccnc1)NC(=O)[C@H](CC(N)=O)NC(=O)[C@H](CCCCN(C)C(C)=O)NC(=O)C1(NC(=O)[C@H](Cc2ccc3ccccc3c2)NC(=O)[C@H](Cc2ccc(OCCCCC[N+](C)(C)C)cc2)NC(=O)[C@H]2NC(=O)[C@H](CCCCNC(C)=O)NC(=O)[C@H](Cc3c[nH]c4c(C)cccc34)NC(=O)[C@H]([C@@H](C)O)NC(=O)[C@H](CC(=O)N(C)C)NC(=O)[C@@H](NC(=O)CCOCCOCC[N+](C)(C)C)C(C)(C)SSC2(C)C)CCOCC1)C(=O)O [compound 372, cPEG3aCO-Pen(3)-N(N(Me)2)-T-7MeW-K(Ac)-Pen(3)-TMAPF-2Nal-THP-K(NMeac)-N-3Pya-NMeK(PEG2PEG2K(PEG2PEG2gEC12)2)-CONH2] ({Me3N+(CH2)2O(CH2)2O(CH2)2CO}-[Pen]D(NMe2)T[Trp(7-Me)]K(Ac)[Pen]Y(X3)[2Nal][Thp][Lys(Me)](Ac)N[3Pal][NMeK]([AEEA-AEEA-X46])-NH2; disulfide 1-6) |
